`O=C(O)[C@H](Cc1c[nH]c2ccccc12)NC(=O)[C@@H]1C[C@H](S)CN1S(=O)(=O)c1ccc2ccccc2c1`: the melting point worked out at 130 °C.

As for `Cc1ccc(Nc2cc(-c3ccccc3)nc(-c3ccccc3)c2)cc1`, the melting point is 125 °C.

In the case of `CCCn1ncc2c(=O)[nH]c(-c3ccccc3OCC)nc21`, the melting point was in the range of 154 to 155 °C.

The molecule `Brc1ccc2c(c1)N=C(N1CCSCC1)c1cccc3c1N2CC3` displayed a melting point of 165 to 167 °C.

`COc1cc(-c2ccccc2C(F)(F)F)c(Cl)cc1C(=O)N1Cc2ccc(C(=O)N(C)CC(O)C(O)C(O)C(O)CO)n2Cc2ccccc21` (configuration not stated): the melting point lay in the range of 150 to 151 °C.

As to `COc1ccc(N2CCN(CCC3CN(C)C(=O)O3)CC2)cc1` (configuration not stated), the melting point was in the range of 103 to 104 °C.

As for `CCOC(=O)c1c(NC=CC(=O)C(C)C)sc(-c2ccc(OC)cc2)c1C`, the melting point is 121 to 122 °C.

In the case of `CCOCc1nc2c(N)nc3cc(NS(=O)(=O)CC)ccc3c2n1CC(C)(C)O`, the melting point fell in the range of 124 to 127 °C.

Take `C=CCOc1cc(F)c(C#N)c(OC(C(=O)OC)c2ccccc2C)c1` (racemic): the melting point was in the range of 100 to 102 °C.

As to `CCC(=NC#N)N(C)C(C)c1ccc(Cl)cc1Cl` (configuration not stated), the melting point amounted to 148 °C.

In turn, `O=C(O)CCCCCOc1ccc2sc(-c3ccccn3)nc(=O)c2c1` displayed a melting point of 205 to 206 °C.

In turn, `Cc1ccccc1OCc1ccccc1[N+](=O)[O-]` registered a melting point of 83 °C.

`COC(=O)c1ccc(CC(C)NCC(O)c2ccc(O)c(O)c2)cc1` (configuration not stated): the melting point turned out to be 169 °C.

As for `O=C(O)CCc1c(C(=O)O)[nH]c2cc(Br)cc(Br)c12`, the melting point came out at 259 °C.

For the molecule `CC1(C)OCCN1c1nc(-c2ccc(C#N)cc2)cs1`, the melting point lay in the range of 108 to 111 °C.

Molecule `N#Cc1ccc(OCCCCOc2ccc(-c3cc4ccc(C#N)cc4o3)cc2)cc1` gave a melting point of 187 to 189 °C.

The molecule `CC(C)(C)C(NC(=O)Cc1ccc2ccccc2c1)NC(=NC#N)Nc1cccc2ncccc12` (configuration not stated) showed a melting point of 200 to 201 °C.

`c1ccc(-c2ccccc2OCCCCCCOc2ccccc2-c2ccccc2)cc1` came in with a melting point of 92 to 95 °C.

For the molecule `Cc1ccc(Cl)cc1-c1noc(CCC#Cc2ccccn2)n1`, the melting point lay in the range of 66 to 68 °C.

Molecule `COc1ccc(Oc2nnn[nH]2)cc1` yielded a melting point of 150 °C.

Turning to `O=C(Nc1ccccc1)c1cccc([N+](=O)[O-])c1C(=O)Nc1ccccc1`, the melting point fell in the range of 139 to 141 °C.

With `CCCC[C@H](NC(=O)[C@@H](NC(=O)OCc1ccccc1)C(C)C)C(=O)CSCc1ccco1`, the melting point fell in the range of 115 to 116 °C.

Consider `Cc1nnc(-c2ccc3occ(-c4ccc(C(=O)N(C)C)c(F)c4)c3c2)o1`, for which the melting point is 152 to 153 °C.

As for `CCCCCOc1cc2c(cc1/C=C/c1ccc(C(=O)O)cc1)C(C)(C)CCC2(C)C`, the melting point was in the range of 148 to 149 °C.

Molecule `COc1cc(C(=O)c2cnc(Cl)nc2Cl)cc(OC)c1OC` came in with a melting point of 140 to 141 °C.

Take `CCCCNC1CC(C)(C)N(CCO)C(C)(C)C1`: the melting point fell in the range of 106 to 111 °C.

For `CN(C)CC(c1ccccc1)c1nnc2n1-c1ccc(I)cc1C(c1ccccc1)=NC2` (configuration not stated), the melting point is 192 to 194 °C.

Take `Cc1nnc(-c2cnc3occ(-c4ccccc4Cl)c3c2)o1`: the melting point lay within 141 to 142 °C.

`O=C(OC1c2ccccc2C(=O)N1c1ccc2ccc(Cl)nc2n1)N1CCN(C(=O)C(F)(F)F)CC1` (configuration not stated): the melting point amounted to 218 °C.

For `O=C1C(=CO)CSc2c(Cl)cccc21`, the melting point was in the range of 97 to 99 °C.

In the case of `O=C(OCc1ccccc1)[C@@H](CC1=CCCC1)OS(=O)(=O)c1ccccc1[N+](=O)[O-]`, the melting point fell in the range of 122 to 124 °C.

Molecule `Fc1ccc(-c2[nH]nc(C3=CCN4CCCC4C3)c2-c2ccncc2)cc1` (configuration not stated) came in with a melting point of 209 to 214 °C.

In the case of `COc1ccccc1[C@H](c1cccc2ccccc12)[C@@](C)(C#N)C(=O)N1CCN(c2ccccc2Cl)CC1`, the melting point lay within 145 to 147 °C.

`CCCCCCCCCCCCCCCCCC(=O)c1ccc(OC)c(C(=O)OC)c1`: the melting point is 73 to 74 °C.

`COc1cc2c3c(n(Cc4ccccc4)c2cc1OC)CCCC3C(=O)N1CCN(c2ccccc2)CC1` (configuration not stated) gave a melting point of 245 to 247 °C.

As to `C[C@H]1NC(=O)[C@H]1N(NC(=O)OC(C)(C)C)C(=O)OC(C)(C)C`, the melting point lay within 147 to 149 °C.

Consider `CC(=O)NC1C(OCc2ccccc2)OC(COCc2ccccc2)C(OCc2ccccc2)C1OCC(=O)O` (configuration not stated), for which the melting point lay within 128 to 129 °C.

For `CN(C)CCC1CN(C)C(=S)c2cc([N+](=O)[O-])ccc2O1` (configuration not stated), the melting point fell in the range of 104 to 109 °C.

In the case of `CCCCCCC/C=C/C(=O)NC1CCCCC1`, the melting point lay in the range of 94 to 96 °C.

With `Nc1cccc(-c2nn(Cc3oc4ccccc4c(=O)c3-c3ccccc3)c3ncnc(N)c23)c1`, the melting point lay within 157 to 159 °C.

As for `O=c1[nH]c2ncc(-c3ccncc3)nc2n1CC1CCCCC1`, the melting point was 267 to 269 °C.

`O=c1c2ccccc2n(Cc2ccccc2)n2cccc12`: the melting point lay within 146 to 148 °C.

In the case of `CCn1nc(-c2cccc(Cl)c2)c(C(C)=O)c(Nc2cccc3cccnc23)c1=O`, the melting point was in the range of 127 to 128 °C.

`O=C1CC(c2cccc(-n3cnnn3)c2)=Nc2ccc(-c3ccccc3F)cc2N1` yielded a melting point of 179 to 180 °C.

`CC(C)N1C(=O)c2ccccc2N(C(=O)c2cc(Oc3ccc(C(F)(F)F)cc3Cl)ccc2[N+](=O)[O-])S1(=O)=O` returned a melting point of 125 to 128 °C.

In turn, `O=C(O)Cc1ccc2occ(-c3ccc(C(=O)O)cc3)c2c1` registered a melting point of 278 to 281 °C.

In turn, `CC(C)N1CCN(C(=O)c2cc([N+](=O)[O-])cc(C(F)(F)F)c2)CC1` showed a melting point of 70.7 °C.

Molecule `COCCOc1cc2ncc(C#N)c(Nc3ccc(C)c(O)c3)c2cc1OC` displayed a melting point of 230 to 233 °C.

Regarding `Cc1noc(NS(=O)(=O)c2ccc(-c3cccs3)s2)c1Br`, the melting point was 210 °C.

The molecule `COC(=O)CNC(=O)OC1c2ccccc2C(=O)N1c1ccc2ccc(Cl)nc2n1` (configuration not stated) returned a melting point of 208 to 210 °C.

Regarding `Nc1cc(-c2cccnc2)c[nH]c1=O`, the melting point lay in the range of 280 to 290 °C.

In turn, `CC(=C(Br)Br)c1cn(-c2c(Cl)cc(C(F)(F)F)cc2Cl)nc1C#N` displayed a melting point of 119 to 122 °C.

Take `CC(c1c[nH]cn1)C(N)CO` (configuration not stated): the melting point stood at 168 °C.

`COc1ccc2c(c1)N=C(NCc1cccnc1)c1ccccc1N2` yielded a melting point of 160 to 161 °C.

Molecule `COc1ccc(C(C#Cc2ccccc2)CNC(=O)C(F)(F)F)cc1OC1CCCC1` (racemic) had a melting point of 143 to 145 °C.

Regarding `COC(=O)c1ccc2c(Br)cccc2c1`, the melting point fell in the range of 65 to 68 °C.

In the case of `CC(=O)Nc1cccc(C=C2C(=O)c3ccccc3OC2c2ccccc2)c1` (configuration not stated), the melting point lay within 172 to 173 °C.

As for `Cc1cc(C)c(CP(=O)(Cc2c(C)cc(C)cc2C)Cc2c(C)cc(C)cc2C)c(C)c1`, the melting point lay within 232 to 233 °C.

In turn, `CON=C(c1ccccc1O)n1ccnc1` came in with a melting point of 104 °C.

With `COc1cc2c(cc1OC)C(=O)CCCO2`, the melting point fell in the range of 87 to 88 °C.

`Cc1oc2c(NC(=O)c3c(Cl)cccc3Cl)cccc2c1CN` showed a melting point of 200 to 203 °C.

As to `Oc1ccc(-c2nnc(CSCCCOc3ccccc3)o2)cc1`, the melting point lay in the range of 122 to 127 °C.

Molecule `COc1ccc(OCCCCCCc2c(C)n[nH]c2C)c(Cl)c1` had a melting point of 150 to 151 °C.

The molecule `Cc1ccc(S(=O)(=O)NC(=O)OCCc2ccc(-n3c(CCC(=O)N4CCCC4)nc4cc(C(F)(F)F)c(Cl)cc43)cc2)cc1` registered a melting point of 98 to 105 °C.

On to `CCc1nn2c(-c3cccnc3)ccnc2c1Cl`, for which the melting point lay within 132 to 133 °C.

Regarding `COc1ccc(Cl)n2nc(SCc3ccccc3)nc12`, the melting point lay within 99 to 100 °C.

As for `Cc1ccccc1NC(=O)CN1CC2CCC(C1)N2S(=O)(=O)c1ccccc1Cl`, the melting point fell in the range of 170 to 171 °C.

In turn, `C=CC[C@@H]1CCc2cc(OC)ccc2[C@H]1O` (relative stereo) displayed a melting point of 63 to 65 °C.

Regarding `CCOC(=O)c1cn(CC)c2nc(OC)c([N+](=O)[O-])cc2c1=O`, the melting point lay in the range of 224 to 227 °C.

`O=c1cc(-c2ccccc2)oc2cc(OCCn3ccnc3)ccc12` registered a melting point of 155 to 159 °C.

Consider `O=c1nc(-c2cccc(CCCO)n2)sc2ccccc12`, for which the melting point stood at 146 °C.

In turn, `Fc1cccc(CSc2nnc(-c3ccc4c(c3)CCO4)o2)c1` displayed a melting point of 128 to 129 °C.

Molecule `O=C(O)[C@H](Cc1ccccc1)NC(=O)[C@@H]1CCCN1C(=O)c1ccccc1` registered a melting point of 200 to 202 °C.

With `CC(C)(C)OC(=O)CN1CCOc2ccc([N+](=O)[O-])cc2C1=O`, the melting point was found to be 190 °C.

Molecule `O=C(O)c1ccc2cc(-c3ccc(CCCO)c(C45CC6CC(CC(C6)C4)C5)c3)ccc2c1` yielded a melting point of 262 °C.

In turn, `NC(=O)CCCCn1ccc([N+](=O)[O-])n1` gave a melting point of 129 to 131 °C.

`CC(=O)C(=Cc1ccc(S(C)(=O)=O)c(F)c1)C(C)=O` registered a melting point of 140 to 143 °C.

In turn, `CCOC(=O)c1cc2c3ccccc3n(CCCc3ccccc3)c2c(C)n1` yielded a melting point of 101 to 102 °C.

With `CCOC(=O)/C=C/c1ccc2c(=O)n(CC(C)C)c(CNC(=O)OC(C)(C)C)c(-c3ccccc3)c2c1`, the melting point lay in the range of 147 to 148 °C.

In the case of `CC(=O)N[C@@H]1[C@@H](CCO)CC(C(=O)O)=C[C@H]1OC(C)C`, the melting point fell in the range of 114 to 115 °C.

On to `CCNCC1CCN(c2c(F)cc3c(=O)c(C(=O)O)cn(C(C)C)c3c2F)C1` (configuration not stated), for which the melting point lay within 230 to 231 °C.

The molecule `Fc1ccc2[nH]cc(C3=CCC(N4CCC(Cc5ccccc5)CC4)CC3)c2c1` (configuration not stated) yielded a melting point of 72 to 74 °C.

`CO/C=C(/C(=O)OC)c1ccccc1CCl` yielded a melting point of 85 to 88 °C.

`O=C1Nc2ccc(Cl)cc2C2(c3cccs3)OCCN12` (configuration not stated) came in with a melting point of 193 to 194 °C.

Turning to `CN1CCCC(O)(c2cccc3c2ccn3C)C1` (configuration not stated), the melting point amounted to 90 °C.

On to `COc1cc(C(OC(C)=O)C(COC(C)=O)[N+](=O)[O-])cc(OC)c1OC` (configuration not stated), for which the melting point fell in the range of 107 to 109 °C.

`Cc1ccccc1-c1cc(F)c2ncc(C(=O)NCc3ccc(Cl)cc3)c(O)c2c1`: the melting point was 259 to 265 °C.

Values taken from a melting point compilation (Tetko et al.; mined from patent text by program, amines drawn as free bases though some values may be those of a salt).
